# Measurements published in patent publication US12233064B1, “Antarctic tunicate Synoicum species-derived alkaloids and methods of treatment” (University of South Florida, priority 2019, dated 2025).
# Tests used:
# zebrafish embryos = test: Developmental (phenotypic) zebrafish bioassay; format: in vivo, Danio rerio; details: for phenotype of treated embryos compared to control: 24h post-fertilization, FIG. 16; for concentration at which interesting phenotype demonstrated / Final C tested (concentration most representative of the phenotype) / MTC (Maximum Tolerated Concentration): zebrafish embryos; for Final C tested (concentration most representative of the phenotype): 24 h post fertilization; for MTC (Maximum Tolerated Concentration): compound added 4 h, end 24 h post fertilization
# Procedure: Wildtype Danio rerio fish were used for the assay. Once the zebrafish eggs were collected, they were placed in fresh media along with methylene blue, to deter fungal growth. The embryos were sorted and placed in a 96-well plate and the volume was standardized. For the purpose of this screening it was determined that the optimal point to add the compounds was 4 hours post fertilization and the ending point of the assay was 24 hours post fertilization. The delay in growth and the dysmorphologies were monitored and assessed.
# A developmental zebrafish assay was utilized to test the activity of the extract, the subsequent fractions, and the isolated compounds. […] The Maximum Tolerated Concentration (MTC) was determined for each compound, alongside the minimum active concentration for each compound. The final tested concentration was determined as the one most representative of the phenotype.
# [1] = tested on: A549 (Human lung adenocarcinoma epithelial cell line); details: synthetic Meridianin A; cited from earlier work
# Leishmaniasis = Leishmaniasis assay
# Plasmodium falciparum = details: synthetic Meridianin A; cited from earlier work
SMILES,phenotype of treated embryos compared to control (zebrafish embryos),concentration at which interesting phenotype demonstrated (zebrafish embryos) [µM],Final C tested (concentration most representative of the phenotype) (zebrafish embryos) [µM],MTC (Maximum Tolerated Concentration) (zebrafish embryos) [µM],cytotoxicity to A549 [1],result of Leishmaniasis assay (Leishmaniasis),growth of P. falciparum (Plasmodium falciparum)
Nc1nccc(-c2c[nH]c3cc(Br)c(Br)cc23)n1 [Meridianin F],truncation of the anterior-posterior axis,2,2,10,,,
Nc1nccc(-c2c[nH]c3cc(Br)cc(O)c23)n1 [Meridianin B],,,100,300,,,
Nc1nccc(-c2c[nH]c3ccc(Br)cc23)n1 [Meridianin C],truncation of the anterior-posterior axis,3,3,10,,,
Nc1nccc(C2(O)C(=O)Nc3ccccc32)n1 (stereo not shown) [Australindolone A],,,300,1000,,,
Nc1nccc(-c2c[nH]c3c(Br)cc(Br)c(O)c23)n1 [Meridianin H],,,60,100,,,
Nc1nccc(-c2c[nH]c3c(Br)ccc(O)c23)n1 [Meridianin E],,,10,100,,,
Nc1nccc(-c2c[nH]c3cc(Br)ccc23)n1 [Meridianin D],,,65,100,,,
Nc1nccc(-c2c[nH]c3ccccc23)n1 [Meridianin G],,,100,300,,,
Nc1nccc(-c2c[nH]c3cccc(O)c23)n1 [Meridianin A],,,30,100,cytotoxic to A549,notable,inhibit the growth of P. falciparum
